Tested on: Ki67
Assay: Immunohistochemistry of end-point KPC tumors: proliferating cells
Format: in vivo, mouse
Conditions: KPC tumors at end point
Procedure: All tissues or matrices, including patient TMAs, were fixed in 10% buffered formalin and embedded in paraffin. The 4-μm sections of samples were deparaffinized with xylene and rehydrated in graded ethanol washes. For immunohistochemistry, Bond Dewax Solution (AR9222) was used. Antigen retrieval was performed using Bond RX H2(30) protocol: HIER 30 min ER1 (citrate pH 6) OR ER2 (EDTA pH 9) at 100 °C. Slides were quenched in BOND Polymer Refine Detection (Leica Biosystems DS9800). […] Slides were digitized on an Aperio slide scanner and representative areas per tumor acquired and analyzed by researchers blinded to the conditions of the experiment.
Extended Data Fig. 6 PXS-5505 in combination with gemcitabine in a KPC model. a. Quantification of proliferating cells (Ki67 positive nuclear staining) in KPC tumors at end point, treated as indicated. 5 fields of view (500 μm × 500 μm) per mouse and 10 mice per cohort were scored. […] Quantification of percent coverage of αSMA positive staining in KPC tumors at end point, treated as indicated. 3 fields of view (1000 μm × 1000 μm) per mouse and 10 mice per cohort were scored. […] Quantification of percent coverage of PDGFR-ß positive staining in KPC tumors at end point, treated as indicated. 3 fields of view (1000 μm × 1000 μm) per mouse and 10 mice per cohort were scored. […] 3 fields of view (500 μm × 500 μm) per mouse and 10 mice per cohort were scored. […]

Compound: Nc1ccn([C@@H]2O[C@H](CO)[C@@H](O)C2(F)F)c(=O)n1 [Gem, gemcitabine]
- Ki67 positive tumor cells: significantly decreasing the number of Ki67 positive tumor cells
